According to article PMC5639602, “Role of microglial amylin receptors in mediating beta amyloid (Aβ)-induced inflammation” (Journal of Neuroinflammation, 2017):
“Also recorded” adds a separate entry of the source. Ends that are not written are not given here.

Experiments:
AMY1 = assay: cAMP in-cell Western, AMY1-expressing HEK293 cells; format: cell-based; conditions: 5 min
Source text: (§1) In order to characterize the antagonist activity of cAC253 at subtypes of amylin receptors, we compared hAmylin-generated cAMP responses in stably expressed AMY1, AMY2, and AMY3 and CTR receptors in HEK293 cells and wild-type HEK (HEK-WT) cells (Additional file 1).
(§2) For in-cell Western blot cyclic adenosine monophosphate (cAMP) quantification, mouse monoclonal anti-cAMP (R&D Systems) was used as a primary antibody and IRDye 700 goat anti mouse antibody (LI-COR) was used as a secondary antibody. Plates were imaged using an Odyssey Infrared Imaging System (LI-COR), and the integrated intensity was normalized to the total cell number on the same well as previously described.
(§3) Amylin receptor subtypes stably expressed in human embryonic kidney (HEK293) cell-line were generated and characterized as described in a previous published article from our laboratory ( Fu et al., J. Biol. Chem. 2012). […]
(§4) The in-cell Western blot cyclic adenosinemonophosphate (cAMP) quantification was used as previously described (Fu et al., J Biol Chem. 2012). […] The cAMP was measured at 5 min after treatment, i.e., at 5 min after different concentration of hAmylin and/or cAC253 treatment, cells were fixed with 4% paraformaldehyde in PBS for 10 min. […] Plates were imaged using an Odyssey Infrared Imaging System (LI-COR), and the integrated intensity was measured. […]

AMY3 = assay: cAMP in-cell Western, AMY3-expressing HEK293 cells; format: cell-based; conditions: 5 min
Source text: as §1, §2, §3, §4

[1] = tested on: human fetal microglia (HFM); amylin receptor; assay: Intracellular Ca2+ imaging (Fluo-8L-AM, confocal) in human fetal microglia; format: cell-based; conditions: 1 μM
Description: Two different types of microglial, primary cultures of human fetal microglia and mouse microglial BV2 cell line, were used for in vitro testing of amylin receptor function. […] Primary mixed glial cultures were prepared from 12- to 15-gestational-week fetuses as previously reported [21, 22]. Briefly, the meninges and blood vessels were removed and the brain tissue was washed in minimum essential medium and mechanically dissociated by repeated trituration through a 20-gauge needle. Cells were centrifuged at 1500g for 10 min and re-suspended in minimum essential medium with 10% fetal bovine serum. The cultures were grown in a 5% CO2 humidified incubator at 37 °C. After mixed glial cultures were completely confluent, human fetal microglia (HFM) were isolated by shaking flasks at 100 rpm (IKA KS-260, IKA Works, Wilmington, NC) for 1 h at 37 °C. The media was then collected and centrifuged at 2500 RCF for 5 min at 4 °C. Cell pellets were re-suspended in microglia plating media (MEM + 10% FBS + 1% penicillin/streptomycin). HFM were plated at a 2 × 10^5 cells per milliliter density, and microglia were allowed to attach overnight before further use for experiments. […] For all in vitro experiments, primary human fetal microglial cultures and BV2 cell cultures, each experiment was performed on a fresh batch of cell cultures and repeated a minimum of four times. Statistical analysis was performed on mean data.
Ca^2+ concentration were monitored with confocal microscopy as described previously [23, 24]. Briefly, HFMs were plated on glass coverslips pre-coated with poly-L-ornithine and incubated at 37 °C for 12–36 h. Then, incubated with 5 μM of membrane-permeant fluorescent Ca^2+-sensitive dye Fluo-8L-AM (AAT Bioquest, Inc., Sunnyvale, CA) for 40 min at room temperature (20–23 °C) within < 2 h before imaging. For Ca^2+ imaging, the superfusate of ion content similar to extracellular brain fluid thus contain the following: 130 mM NaCl, 4 mM KCl, 1 mM MgCl2, 2 mM CaCl2, 10 mM HEPES, and 10 mM glucose (pH 7.35) was applied at a rate of 3 ml/min using a roller pump (Watson-Marlow Alitea, Sin-Can, Calgary, AB, Canada). […] Fluorescence intensity was monitored with a FV-300 laser-scanning confocal microscope (Olympus FV300, Markham, Ontario, Canada) equipped with an argon laser (488 nm) and excitation/emission filters (FF02-520/28-25; Semrock, Inc.) for an emission wavelength at 514 nm, measured with a numerical aperture of 0.95 20× XLUMPlanF1 objective (Olympus). Images were acquired at scan rates of 1.25–1.43 per second using a 2–3× digital zoom at full-frame (512 × 512 pixel) resolution. Regions of interest were drawn around distinct cell bodies, and analysis of time courses of change in fluorescence intensity were generated with FluoView software (version 4.3; Olympus). […]

[2] = tested on: cytokine gene expression in HFM; assay: Cytokine RT-PCR array in human fetal microglia; format: cell-based; conditions: 1 μM, 6 h, vs untreated
Description: The PCR array for TNFα, IL1β, and IL23 gene expression used the RT^2 Profiler PCR Array system (96-well assay plate, SABiosciences) following product instruction. […] RNA was isolated with Rneasy Mini kit (Qiagen) as per the product instructions. For each PCR Array, 4 μg of total RNA were used to prepare cDNA with the appropriate first strand kit from SABiosciences. The cDNA was characterized on the iCycler® iQ Real-Time PCR System (Bio-Rad Laboratories) using the RT2 Profiler PCR Arrays. The resulting raw data were then analyzed using the PCR Array Data Analysis Template and expressed as gene expression fold-change after treatment compared to the control untreated HFM cultures.

AMY2 = assay: cAMP in-cell Western, AMY2-expressing HEK293 cells; format: cell-based; conditions: 5 min
Source text: as §1, §2, §3, §4

caspase-1 in HFM = assay: Caspase-1 expression, fluorometric assay, human fetal microglia; format: cell-based
Description: (§5) Two different types of microglial, primary cultures of human fetal microglia and mouse microglial BV2 cell line, were used for in vitro testing of amylin receptor function. This approach provided confirmation of the presence of microglial amylin receptors across species and cross-validated our observations on the function of amylin receptors in both primary cell cultures and a frequently used cell line. Primary mixed glial cultures were prepared from 12- to 15-gestational-week fetuses as previously reported. Briefly, the meninges and blood vessels were removed and the brain tissue was washed in minimum essential medium and mechanically dissociated by repeated trituration through a 20-gauge needle. Cells were centrifuged at 1500g for 10 min and re-suspended in minimum essential medium with 10% fetal bovine serum. The cultures were grown in a 5% CO2 humidified incubator at 37 °C. […]
(§6) For cultured cell immunofluorescent staining, cells were plated on Lab-TEK chamber slide (ThermoFisher) and fixed with 4% paraformaldehyde (PAF) in PBS, then permeabilized with 0.3% Triton X-100 in PBS and blocked with 2% BSA + 10% goat serum for 1 h. […] Fluorescent microscopy images were acquired with an Axioplan-2 fluorescence microscope with AxioVision software (Carl Zeiss Ltd., Toronto, ON, Canada).

caspase-1 in BV2 cells = assay: Caspase-1 expression in BV2 cells; format: cell-based, mouse
Description: as §5, §6

[3] = tested on: NLRP3 in human fetal microglial (HFM) cultures; assay: NLRP3 immunostaining in human fetal microglia; format: cell-based; conditions: vs basal
Description: Two different types of microglial, primary cultures of human fetal microglia and mouse microglial BV2 cell line, were used for in vitro testing of amylin receptor function. This approach provided confirmation of the presence of microglial amylin receptors across species and cross-validated our observations on the function of amylin receptors in both primary cell cultures and a frequently used cell line. Primary mixed glial cultures were prepared from 12- to 15-gestational-week fetuses as previously reported. Briefly, the meninges and blood vessels were removed and the brain tissue was washed in minimum essential medium and mechanically dissociated by repeated trituration through a 20-gauge needle. Cells were centrifuged at 1500g for 10 min and re-suspended in minimum essential medium with 10% fetal bovine serum. The cultures were grown in a 5% CO2 humidified incubator at 37 °C. After mixed glial cultures were completely confluent, human fetal microglia (HFM) were isolated by shaking flasks at 100 rpm (IKA KS-260, IKA Works, Wilmington, NC) for 1 h at 37 °C. The media was then collected and centrifuged at 2500 RCF for 5 min at 4 °C. Cell pellets were re-suspended in microglia plating media (MEM + 10% FBS + 1% penicillin/streptomycin). HFM were plated at a 2 × 10^5 cells per milliliter density, and microglia were allowed to attach overnight before further use for experiments. BV2 cells (kindly provided by Dr. T. Trang, University of Calgary) were cultured in DMEM/F12 media with 10% FBS. For all in vitro experiments, primary human fetal microglial cultures and BV2 cell cultures, each experiment was performed on a fresh batch of cell cultures and repeated a minimum of four times. […]
as §6

AMY3 receptor subtype = conditions: ref [23]; cited from earlier work
Source text: (§7) As a neuroendocrine hormone, amylin mediates glycemic regulation, energy balance control, and cognitive/motivational processes. Human amylin also modulates autoimmunity and innate inflammation through regulatory T cells. Amyloid precursor protein (APP) and Aβ interact with variety of G-protein-coupled receptors (GPCRs) including amylin receptors. Amylin receptors (AMYs) are a dimerized calcitonin receptor (CTR) with receptor activity-modifying proteins (RAMPs) and belong to class B GPCRs. We have previously shown that hAmylin and Aβ preferentially activate AMY3 recep ...

[4] = tested on: hippocampal long-term potentiation; conditions: ref [20], [39]; cited from earlier work
Source text: as §7

CTR = assay: cAMP in-cell Western, CTR-expressing HEK293 cells; format: cell-based; conditions: 5 min
Source text: as §1, §2, §3, §4

[5] = tested on: HEK wild-type control cells; assay: cAMP in-cell Western, wild-type HEK cells; format: cell-based, human; conditions: 5 min
Source text: as §1, §2
The in-cell Western blot cyclic adenosinemonophosphate (cAMP) quantification was used as previously described (Fu et al., J Biol Chem. 2012). Briefly, amylin receptor stable cells were plated at a density of 4x10^4 cells/well in a 96-well plate and cultured for 24 hours. On the day of experiment, culture media was replaced with serum free DMEM medium and further incubate for 6 h before treatment. The cAMP was measured at 5 min after treatment, i.e., at 5 min after different concentration of hAmylin and/or cAC253 treatment, cells were fixed with 4% paraformaldehyde in PBS for 10 min. […] Plates were imaged using an Odyssey Infrared Imaging System (LI-COR), and the integrated intensity was measured. […]

BV2 cells = assay: Aβ uptake and plaque-like structure formation in BV2 cells (thioflavin S); format: cell-based, mouse; conditions: BV2, 1 μM, 24 h, thioflavin S staining
Description: as §5, §6

transgenic AD mice = conditions: systemic administration, ref [40], [41]; cited from earlier work
Source text: as §7

Substance	Receptor activation (cAMP) (AMY1)	Receptor activation (cAMP) (AMY3)	Time of return of Ca2+ to base line ([1]; 30 s application) [min]	Time to Ca2+ increase after entry of the peptide into the imaging chamber ([1]; 30 s application) [min]	Intracellular Ca2+ change ([1]; bath application 30 s, Fluo-8, pooled n = 123 HFM in 12 culture wells, four batches)	IL1β gene expression [2]	TNFα gene expression [2]	Receptor activation (cAMP) (AMY2)	Caspase-1 expression (caspase-1 in HFM)	Caspase-1 expression (caspase-1 in BV2 cells)	NLRP3 level [3]	Activation of AMY3 receptor subtype with downstream MAPK and Akt signaling (AMY3 receptor subtype)	Effect on hippocampal long-term potentiation [4]	Receptor activation (cAMP) (CTR)	cAMP response [5]	NLRP3 level ([3]; listed as Aβ)	Uptake of Aβ1–42 and formation of plaque-like structures (BV2 cells)	Effect on hAmylin- and Aβ-induced depression of hippocampal long-term potentiation [4]	Amyloid burden in the brain (transgenic AD mice)	Efflux of Aβ across the blood brain barrier (transgenic AD mice)
hAmylin: human amylin, the endogenous peptide that binds to the amylin receptor; purchased from American Peptide (KCNTATCATQRLANFLVHSSNNFGAILSSTNVGSNTY; not fully specified (C-terminus, bridges); cysteine pairing not given here; UniProt P10997 34-70, looked up)	activated	activated	≤ 2	≤ 1	robust Ca^2+ increase	increases	increases	not significantly	increased	increased	increased significantly; also recorded: Increased activation of the inflammasome, NLRP3	preferentially activate AMY3 receptor subtype	depression of hippocampal long-term potentiation	not significantly	not significantly					
Aβ1–42: soluble oligomeric amyloid beta 1–42 peptide from rPeptide				≤ 1		increases	increases		increased	increased	Increased activation of the inflammasome, NLRP3	preferentially activate AMY3 receptor subtype	depression of hippocampal long-term potentiation			increased significantly	uptake of the peptide into the microglia and formation of plaque-like structures on the cell surface; also recorded: taken up into the cells and formed plaque-like structures			
pramlintide																		attenuate	reduce amyloid burden in the brain	promoting an efflux of Aβ across the blood brain barrier
